Data from PubChem BioAssay AID449758 (The Scripps Research Institute Molecular Screening Center, 2010).
Active and inactive are the calls of the source. The rule behind the calls is not given here.

Tested on: Human cells, IFNg-induced IRF-1 mRNA, SYBR qPCR
Test: reduction of STAT1 target gene IRF-1 transcripts – cell-based, SYBR qPCR, powder samples, counter-screen for STAT1 inhibitor project, late-stage follow-up (AID 449758)
Conditions: at 10 µM; hits give low values

| SMILES | fold change |
| --- | --- |
| Cc1ccc(-n2nc(C(=O)O)c3ccccc3c2=O)cc1C | 0.764 (inactive) |
| O=c1cc(CSc2nc3ccccc3c(=O)[nH]2)c2ccc(O)cc2o1 | 1.36 (inactive) |
| Cc1cc(=O)n(C(NC(=O)c2ccccc2)C(=O)c2ccccc2)cn1 (stereo not given) | 1.24 (inactive) |
| CCOC(=O)N1CCN(C(=O)c2ccc(-n3c(=S)[nH]c4ccccc4c3=O)cc2)CC1 | 0.883 (inactive) |
| CCOC(=O)C(=CNc1cc(C)nn1-c1ccccc1)C(=O)OCC | 0.997 (inactive) |
